According to patent publication US20150087586A1, “PEGYLATED C-PEPTIDE” (Cebix, Inc., priority 2012, published 2015):

Assay: Pharmacokinetic study of unmodified C-peptide in beagle dogs, single S.C. dose, plasma ELISA
Type: in vivo
Conditions: single S.C. dose 0.5 mg/kg
Description: A pharmacokinetic (PK) study was conducted to determine the C-peptide PK profile with unmodified C-peptide in beagle dogs.
Two male and one female dog received S.C. the unmodified synthetic human C-peptide (0.5 mg/kg; 0.025 mL/kg) formulated in phosphate buffered saline (20 mg/mL). Dogs were bled by venipuncture and blood samples were collected at predetermined time points over 14 days. Plasma samples were obtained after centrifugation of the blood (3,000 rpm for 10 minutes) and stored at −80° C. until analysis. A CRO with Good Laboratory Practice (GLP) capabilities (MicroConstants, Inc.; San Diego, Calif.) performed the bioanalytical work. […] Results were expressed as C-peptide concentrations. For the PK analysis, the below quantitation level (BQL) was treated as zero and nominal time points were used for all calculations. PK parameters were determined by standard model independent methods based on the individual plasma concentration-time data for each animal using model 200 in WinNonlin Professional 5.2.1 (Pharsight Corp., Mountain View, Calif.).

CC(C)C[C@H](NC(=O)[C@H](C)NC(=O)[C@H](CC(C)C)NC(=O)[C@@H]1CCCN1C(=O)[C@H](CCC(N)=O)NC(=O)[C@H](CC(C)C)NC(=O)[C@H](CO)NC(=O)CNC(=O)[C@H](C)NC(=O)CNC(=O)[C@@H]1CCCN1C(=O)CNC(=O)CNC(=O)CNC(=O)[C@H](CC(C)C)NC(=O)[C@H](CCC(=O)O)NC(=O)[C@@H](NC(=O)[C@H](CCC(N)=O)NC(=O)CNC(=O)[C@@H](NC(=O)[C@H](CCC(N)=O)NC(=O)[C@H](CC(C)C)NC(=O)[C@H](CC(=O)O)NC(=O)[C@H](CCC(=O)O)NC(=O)[C@H](C)NC(=O)[C@@H](N)CCC(=O)O)C(C)C)C(C)C)C(=O)N[C@@H](CCC(=O)O)C(=O)NCC(=O)N[C@@H](CO)C(=O)N[C@@H](CC(C)C)C(=O)N[C@@H](CCC(N)=O)C(=O)O [CP-AQ]
tolerability (clinical abnormalities) (14 days observation): well tolerated | time until circulating levels of C-peptide were below quantitation level (BQL) (plasma): BQL within half a day
